Values of other authors as cited in patent US8613910B2, “Flavonoids as synergists for enhancing the action of self-tanning substances” (Merck Patent GmbH, priority 2005, dated 2013).

Settings: amongst the hydroxyflavone structures investigated, entire pH range

SMILES: O=c1c(O)c(-c2ccc(O)c(O)c2)oc2cc(O)cc(O)c12 [quercetin, 3,3′,4′,5,7-pentahydroxyflavone]
- antioxidant action: greatest activity
